Results as given in PMC8745332, “Synthesis, Molecular Docking and Biological Characterization of Pyrazine Linked 2-Aminobenzamides as New Class I Selective Histone Deacetylase (HDAC) Inhibitors with Anti-Leukemic Activity” (International Journal of Molecular Sciences, 2021).
Read-outs that look alike come from different tables or passages of the source.

How the values were obtained:
Type in all cases: cell-based, human
MV4-11 and MOLM-13 cells = assay: Immunoblot of acetylated histone H3 and cleaved caspase-3; settings: MV4-11 and MOLM-13 cells, 0.25, 0.5, 1 µM, 24 h
Description: (C,D) The same experiments were conducted with MOLM-13 cells. (E) IC50 values were determined for 19f. (F) Immunoblot was done with the stated antibodies and lysates of MV4-11 and MOLM-13 cells that were incubated with the HDACi for 24 h. […] Graphs show representatives of three independent experiments.

MOLM-13 cells = assay: Apoptosis in MOLM-13 cells, annexin-V/PI flow cytometry; settings: for IC50: Homo sapiens
Description: We measured the induction of early (increased exposure of phosphatidylserine on the cell surface and therefore positive staining for annexin-V-FITC) and late apoptosis (positivity for annexin-V and accumulation of propidium iodide, PI) by flow cytometry.
(§1) All leukemic cells were kept in RPMI-1640 medium supplemented with 10% FBS and 1%penicillin/streptomycin (Sigma-Aldrich, Taufkirchen, Germany) under standard culture conditions at 37 °C and a 5% CO2 humidified atmosphere. Cells were authenticated as mentioned by us.

HEL cells = assay: Cytotoxicity/apoptosis in HEL cells expressing JAK2V617F, annexin V-FITC/PI flow cytometry
Description: (B) Cells were stained with annexin V-FITC/PI and analyzed via flow cytometry. […] IC50 values were determined for 19f. Results represent three independent experiments.
This erythroleukemia cell model carries a mutation in Janus kinase-2 (JAK2V617F) and HDACi are considered as therapeutic options to control the transformation of this disease into AML [53].
as §1

For `Nc1ccccc1NC(=O)c1cnc(N2CCN(Cc3c[nH]c4ccccc34)CC2)cn1` [19f, 5-(4-((1H-indol-3-yl)methyl)piperazin-1-yl)-N-(2-aminophenyl)pyrazine-2-carboxamide], the “accumulation of acetylated histone H3 (immunoblot)” value (MV4-11 and MOLM-13 cells) was “triggered the expected accumulation of acetylated histone H3 dose-dependently and more potently than MS-275 did”, the IC50 (MOLM-13 cells; MOLM-13, 48 h, read-out: IC50 (apoptosis, annexin-V/PI)) was 318 nM and the IC50 (MOLM-13 cells; MOLM-13 cells, 24 h, annexin-V/PI, read-out: IC50 for apoptosis induction) was 397 nM. The IC50 (MOLM-13 cells; MOLM-13 cells, after 48 h, read-out: IC50 values for growth inhibition) was roughly 300 nM, the “fold higher potency than MS-275 (apoptosis induction)” value (MOLM-13 cells; MOLM-13 cells, versus MS-275) was 4 fold and the “apoptosis in HEL cell cultures” value (HEL cells; 0.5 µM, 48 h) was 26%. For the same molecule, the IC50 (HEL cells; Homo sapiens, 0.25 µM to 5 µM, 24 h, read-out: IC50 for toxic effects on HEL cells) was 925 nM.
